Where a name gives a salt, the structure may show the parent alone. Read-outs that look alike come from different tables or passages of the source.

The values below come from patent publication US20200345721A1, “Device for Deterring Abuse of Drugs” (EIGHTY EIGHT PHARMA, INC., priority 2019, published 2020).

The subject of data set [1] is pharmacologic effects of 25 mg of intravenously administered heroin. Particulars: cited from earlier work.
The test system of another data set is guinea pig. Conditions: cited from earlier work.
A further data set has as its system rat. Particulars: cited from earlier work.
For a further data set, the system named is animals. Conditions: cited from earlier work.
For a further data set, the system named is humans. Particulars: 800 mg daily for up to one week, human subjects; cited from earlier work.
A short description of data set [2]: Naltrexone HCl solubility, HPLC analysis. It counts as physicochemical. Conditions: for solubility at 2 h / solubility at 1 h / solubility: thermodynamic from solid; for solubility at 1 h: sample 50 mg/mL. As to the method: To determine the solubility of Naltrexone HCl in solutions of 100% water or 60%/40% Ethanol/water, solutions of Naltrexone HCl were prepared at 50 mg/mL and 100 mg/mL in 100% water or 60%/40% ethanol/water for a total of 4 solutions. Solutions were vortex mixed, placed on a mechanical shaker and evaluated every 30 minutes for complete dissolution. Once fully dissolved, each solution was prepared for HPLC by diluting to 2 mg/mL in methanol and 0.1M phosphoric acid and analyzed on an HPLC.
The 50 mg/mL samples were fully dissolved into solution following 1 hour on the mechanical shaker with periodic vortex mixing. The 100 mg/mL solution prepared in the ethanol/water mixture was dissolved after a total of 2 hours shaking with periodic vertex mixing. The 100 mg/mL solution in 100% water was also sonicated. HPLC results are included in Table 3.

Data set [3] is described as follows: Solubility of naltrexone in ethanol/water. The class given is physicochemical. The method, then:
A solution of naltrexone in 60% Ethanol/40% water at a concentration of 19 mg/ml was achieved without precipitation.
To determine a formulation which will deposit 3.6-9.6 mg of Naltrexone onto small IR tablets within a specified period of time, the ratio of ethanol to water was adjusted to increase solubility of Naltrexone.

The nature of data set [4]: Naltrexone recovered from IR and ER tablets, 23 mg/mL solutions (Example 4). Particulars: 23 mg/ml ethanol/water solution, lower proportion of ethanol. As to the method: To compare formulations of Naltrexone and Naltrexone HCl which will deposit 3.6-9.6 mg of Naltrexone onto small IR tablets, small extended release (“ER”) tablets and large ER tablets, Naltrexone (23 mg/ml) and Naltrexone HCl (23 mg/ml) solutions were used. Six (6) small IR tablets (Homeopathy Blank 5 Grain, Lactose, Lot #: 07090710H3, Exp. 08/23), six (6) small ER Tablets (Mucus Relief Guaifenesin Extended-Release Tablets, 600 mg, Lot #: F07210, Exp. 04/20), and three (3) large ER tablets (Mucus Relief Guaifenesin Extended-Release Tablets, 1200 mg, Lot #: F08474, Exp. 05/20) were tested. Tablets were placed in test tubes or kept in their blister packaging and spiked with a 23 mg/mL spiking solution containing either Naltrexone Base or Naltrexone HCl. Small tablets (IR and ER) were divided into two groups of 3 and coated with a solution prepared with either Naltrexone base (23 mg/ml) or Naltrexone HCl (23 mg/ml). Large ER tablets were spiked with Naltrexone base solution only while remaining in their original blister packaging. Each tablet remained in solution for a period of 2, 6 or 10 minutes before removal and testing form Naltrexone. The large ER tablets spiked with Naltrexone NCl were not completed due to time limitations

Take `O=C1CC[C@@]2(O)[C@H]3Cc4ccc(O)c5c4[C@@]2(CCN3CC2CC2)[C@H]1O5` [Naltrexone HCl, naltrexone hydrochloride]: the “duration of blockade of pharmacologic effects of heroin” value in data set [1] (50 mg naltrexone hydrochloride vs 25 mg intravenous heroin) is recorded as at most 24 hours. Moreover, the duration of blockade in data set [1] (doubling the dose of naltrexone hydrochloride) is 48 h; in data set [1] (tripling the dose of naltrexone hydrochloride), “about 72 hours”. Moreover, the “oral LD50” value is reported as 1,490 mg/kg with guinea pig and 1,450 mg/kg in the data set with rat. The “signs produced by high doses” value in the data set on animals (high doses, generally >1,000 mg/kg) is “salivation, depression/reduced activity, tremors, and convulsions”. Further, in the data set on humans, the evidence of toxicity entry was “no evidence of toxicity”. The “time on mechanical shaker until fully dissolved” value in data set [2] (50 mg/mL samples, periodic vortex mixing) turned out to be 1 h. Also, the “total shaking time until dissolved” value in data set [2] (100 mg/mL in ethanol/water mixture) was found to be 2 h. The solubility at 2 h is at least 100 mg/mL in data set [2] (60%/40% ethanol/water, aqueous with cosolvent or surfactant or cyclodextrin, 60%/40% ethanol/water, read-out: solubility (soluble up to)) and 96.1 mg/mL in data set [2] (60:40 ethanol:water, aqueous with cosolvent or surfactant or cyclodextrin, sample 100 mg/mL, 60:40 Ethanol:water, HPLC, read-out: Solubilized Concentration). Moreover, the solubility at 1 h in data set [2] (60:40 ethanol:water, aqueous with cosolvent or surfactant or cyclodextrin, 60:40 Ethanol:water, HPLC, read-out: Solubilized Concentration) is 48.6 mg/mL; in data set [2] (100% water, water, 100% water, HPLC, read-out: Solubilized Concentration), 49 mg/mL. For the same molecule, the solubility in data set [2] (100% water, water, 100% water, read-out: solubility (soluble up to)) is at least 100 mg/mL; in data set [2] (100% water, water, sample 100 mg/mL, 100% water, HPLC, read-out: Solubilized Concentration), 96.9 mg/mL.
As for `O=C1CC[C@@]2(O)[C@H]3Cc4ccc(O)c5c4[C@@]2(CCN3CC2CC2)[C@H]1O5` [Naltrexone Base, naltrexone], the “concentration achieved without precipitation” value in data set [3] (60% Ethanol/40% water) was determined as 19000 µg/mL. Besides, the “final concentration of solution, titrated with water until precipitates formed” value in data set [3] (75:25 ethanol to water) turned out to be 37.5 mg/mL. The cause of mortalities result with animals (high-dose administration, animals) is “tonic-clonic convulsions and/or respiratory failure”. Further, in data set [4], the “stability of the solution” value was “comes out of solution over time”.
